The record followed here is patent publication US8742124B2, “Amide derivatives bearing a cyclopropylaminoacarbonyl substituent useful as cytokine inhibitors” (AstraZeneca AB, priority 2003, dated 2014).

One test addresses T1, Human recombinant p38α (Homo sapiens, UniProt Q16539).
T1 construct: c-myc (N); 6His (N); made in house; host or cells: E. coli (PET vectors)
The test is described as follows: In vitro enzyme assay, p38α kinase inhibition. Format: biochemical. To be noted: activated p38α, Myelin Basic Protein substrate, 33P ATP. How it is done: The ability test compounds to inhibit the enzyme p38 kinase was assessed. Activity of the test compound against each of the p38α and […] isoforms of the enzyme was determined.
Human recombinant MKK6 (GenBank Accession Number G1209672) was isolated from Image clone 45578 (Genomics, 1996, 33, 151) and utilised to produce protein in the form of a GST fusion protein in a pGEX vector using analogous procedures to those disclosed by J. Han et al., Journal of Biological Chemistry, 1996, 271, 2886-2891. p38α (GenBank Accession Number G529039) and p38β (GenBank Accession Number G1469305) were isolated by PCR amplification of human lymphoblastoid cDNA (GenBank Accession Number GM1416) and human foetal brain cDNA [synthesised from mRNA (Clontech, catalogue no. 6525-1) using a Gibco superscript cDNA synthesis kit] respectively using oligonucleotides designed for the 5′ and 3′ ends of the human p38α and p38β genes using analogous procedures to those described by J. Han et al., Biochimica et Biophysica Acta, 1995, 1265, 224-227 and Y. Jiang et al., Journal of Biological Chemistry, 1996, 271, 17920-17926.
Both p38 protein isoforms were expressed in E. coli in PET vectors. Human recombinant p38α and p38β isoforms were produced as 5′ c-myc, 6His tagged proteins. Both MKK6 and the p38 proteins were purified using standard protocols: the GST MKK6 was purified using a glutathione sepharose column and the p38 proteins were purified using nickel chelate columns.
The p38 enzymes were activated prior to use by incubation with MKK6 for 3 hours at 30° C. The unactivated E. coli-expressed MKK6 retained sufficient activity to fully activate both isoforms of p38. For p38α, the activation incubate comprised p38α (50 μl of 10 mg/ml), MKK6 (5 μl of 12 mg/ml), ‘Kinase buffer’ [550 μl; pH 7.4 buffer comprising Tris HCl (50 mM), EGTA (0.1 mM), sodium orthovanadate (0.1 mM) and (1-mercaptoethanol (0.1%)], Mg [75 μl of 100 mM Mg(OCOCH3)2] and ATP (75 μl of 1 mM). The activation incubate for p38β was similar to the above except containing […] enzyme (82 μl at 3.05 mg/ml) and 518 μl “Kinase buffer”. p38α and p38β activation incubates were either used fresh or aliquoted and stored at −80° C.
The test compound was solubilised in DMSO (10 mM) and 1:3 serial dilutions in DMSO carried out in polypropylene plates (Costar 3365). Compound dilutions were then diluted 1:10 in “Kinase buffer” and 10 μl transferred to a microtiter assay plate (Costar 3596). Control wells contained 10 μl (1:10 dilution in kinase buffer) DMSO. ‘Kinase Assay Mix’ [[…]; comprising Myelin Basic Protein (Sigma M-1891; 0.5 ml of a 6.66 mg/ml solution in “Kinase buffer”), activated p38α enzyme (3.8 μl) and ‘Kinase Buffer’ (2.55 ml)] was then added. Control wells on each plate either contained the above “Kinase Assay Mix” (n=6 replicates) or contained “Kinase Assay Mix” in which the activated p38 enzyme was replaced by Kinase buffer (n=6 replicates). ‘Labelled ATP’ was then added to all wells […]; comprising 50 μM ATP, 5 μCi ^33P ATP (Amersham International cat. no. AH9968) and 50 mM Mg(OCOCH3)2]. For p38β, 23 μl activated p38β enzyme and “Kinase buffer” (2.53 ml) were included in the “Kinase Assay Mix”. The final concentration of test compound was 2.4 μM-0.001 μM (n=2 replicates). Microtiter plates were incubated at ambient temperature (with gentle agitation) for 60 minutes and the reaction stopped by addition of 20% trichloroacetic acid (TCA) (50 μl). The precipitate protein was captured onto filter plates (PerkinElmer 6005174) using a Packard Filtermate harvester (2% TCA wash) which was then dried overnight and 25 μl MICROSCINT O (Packard O6013611) added to each well. Plates were counted on a Top Count scintillation counter. Dose response curves were generated using an in house automated data analysis package and an Origin curve fitting package.

The test system of test [1] is TNFα production in human whole blood. The test is described as follows: Human whole blood assay, inhibition of LPS-stimulated TNFα production. The following applies: LPS 10 μg/ml, 6 hours, TNFα by ELISA. The format is cell-based. How it is done: [formula] (ii) Human Whole Blood
The ability of a test compound to inhibit TNFα production was also assessed in a human whole blood assay. Human whole blood secretes TNFα when stimulated with LPS.
Heparinised (10 units/ml) human blood was obtained from volunteers. 160 μl whole blood was added to 96 well round-bottom plates (Corning 3799). Compounds were solubilised in DMSO at a concentration of 10 mM, diluted 1:100 in “culture medium” [RPMI 1640 medium (Sigma) containing 50 units/ml penicillin, 50 μg/ml streptomycin and 2 mM glutamine] and subsequently serial dilutions were made in culture medium containing 1% DMSO. 20 μl of each test concentration was added to appropriate wells (triplicate cultures)(final concentration dose range of 10 μM-0.0001 μM). 20 μl of RPMI culture medium containing 1% DMSO was added to control wells.
Plates were incubated for 30 minutes at 37° C. (humidified incubator), prior to addition of 20 μl LPS (final concentration 10 μg/ml). Culture medium was added to control wells. Six “LPS alone” and six “medium alone” controls were included on each plate. A known TNFα synthesis/secretion inhibitor was included in each test. Plates were incubated for 6 hours at 37° C. (humidified incubator). Plates were centrifuged (2000 rpm for 10 minutes) and 80 μl plasma removed and stored at −80° C. (Corning 3799 plates). TNFα levels were measured by ELISA using paired antibodies from R&D Systems (catalogue nos. MAB610 and BAF210).

T1 sequence (Q16539 whole entry): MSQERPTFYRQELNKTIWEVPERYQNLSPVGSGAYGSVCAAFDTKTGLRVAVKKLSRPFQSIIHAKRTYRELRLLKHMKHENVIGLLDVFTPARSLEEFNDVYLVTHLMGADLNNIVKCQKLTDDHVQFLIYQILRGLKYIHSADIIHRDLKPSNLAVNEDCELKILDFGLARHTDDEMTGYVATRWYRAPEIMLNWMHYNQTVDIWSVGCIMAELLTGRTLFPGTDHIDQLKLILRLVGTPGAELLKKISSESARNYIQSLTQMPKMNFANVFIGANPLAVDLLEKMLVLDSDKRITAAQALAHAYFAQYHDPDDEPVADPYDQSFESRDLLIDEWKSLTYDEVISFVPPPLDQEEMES

For orientation: IC50 means the midpoint of a concentration-inhibition curve. Turning to `Cc1ccc(C(=O)NC2CC2)cc1NC(=O)c1ccc(OCc2cscn2)c(F)c1` [5[ac], N-{5-[(cyclopropylamino)carbonyl]-2-methylphenyl}-3-fluoro-4-(1,3-thiazol-4-ylmethoxy)benzamide], the IC50 on Human recombinant p38α came to 0.007 µM; in test [1], 0.07 µM.

Turning to `Cc1ccc(C(=O)NC2CC2)cc1NC(=O)c1ccc(OCc2cn3ccccc3n2)cc1` [5[e], N-cyclopropyl-3-{[4-(imidazo[1,2-a]pyridin-2-ylmethoxy)benzoyl]amino}-4-methylbenzamide], the IC50 on Human recombinant p38α stood at 0.01 µM; in test [1], 0.52 µM.

Regarding `Cc1ccc(C(=O)NC2CC2)cc1NC(=O)c1ccc(OCc2ccccn2)c(F)c1` [5[y], N-{5-[(cyclopropylamino)carbonyl]-2-methylphenyl}-3-fluoro-4-(pyridin-2-ylmethoxy)benzamide], the IC50 at Human recombinant p38α worked out at 0.006 µM; in test [1], 0.14 µM.

On to `Cc1nc(COc2ccc(C(=O)Nc3cc(C(=O)NC4CC4)ccc3C)cc2F)cs1` [5[z], N-{5-[(cyclopropylamino)carbonyl]-2-methylphenyl}-3-fluoro-4-[(2-methyl-1,3-thiazol-4-yl)methoxy]benzamide], for which the IC50 at Human recombinant p38α worked out at 0.007 µM; in test [1], 0.3 µM.

As to `Cc1ccc(C(=O)NC2CC2)cc1NC(=O)c1cnc(OCc2nccs2)nc1` [23[a], N-{5-[(cyclopropylamino)carbonyl]-2-methylphenyl}-2-(1,3-thiazol-2-ylmethoxy)pyrimidine-5-carboxamide], the IC50 is 0.17 µM on Human recombinant p38α and 1.7 µM in test [1].

Regarding `COc1ccc(C(=O)Nc2cc(C(=O)NC3CCC3)ccc2C)cc1OC` [Comparator Compound X, N-cyclobutyl-3-(3,4-dimethoxybenzamido)-4-methylbenzamide, reference compound], the IC50 on Human recombinant p38α was 4.4 µM; in test [1] it was > 10 µM.

Consider `Cc1ccc(C(=O)NC2CC2)cc1NC(=O)c1ccc(OCc2ncccc2C)cc1` [Example 8, N-cyclopropyl-4-methyl-3-({4-[(3-methylpyridin-2-yl)methoxy]benzoyl}amino)benzamide], for which the IC50 at Human recombinant p38α is 0.059 µM; in test [1], 1.8 µM.
